The record followed here is US20110092505A1, “ORGANIC COMPOUNDS” (priority 2008, published 2011).

The target in assay [1] is T1, protein kinase D1 (PKD1) (Homo sapiens, UniProt Q15139).
T1 construct: This assay is performed with full length wild-type enzyme that is expressed and purified from Sf9 insect cells; made in house; host or cells: Sf9 insect cells
T1 sequence (Q15139 1-912): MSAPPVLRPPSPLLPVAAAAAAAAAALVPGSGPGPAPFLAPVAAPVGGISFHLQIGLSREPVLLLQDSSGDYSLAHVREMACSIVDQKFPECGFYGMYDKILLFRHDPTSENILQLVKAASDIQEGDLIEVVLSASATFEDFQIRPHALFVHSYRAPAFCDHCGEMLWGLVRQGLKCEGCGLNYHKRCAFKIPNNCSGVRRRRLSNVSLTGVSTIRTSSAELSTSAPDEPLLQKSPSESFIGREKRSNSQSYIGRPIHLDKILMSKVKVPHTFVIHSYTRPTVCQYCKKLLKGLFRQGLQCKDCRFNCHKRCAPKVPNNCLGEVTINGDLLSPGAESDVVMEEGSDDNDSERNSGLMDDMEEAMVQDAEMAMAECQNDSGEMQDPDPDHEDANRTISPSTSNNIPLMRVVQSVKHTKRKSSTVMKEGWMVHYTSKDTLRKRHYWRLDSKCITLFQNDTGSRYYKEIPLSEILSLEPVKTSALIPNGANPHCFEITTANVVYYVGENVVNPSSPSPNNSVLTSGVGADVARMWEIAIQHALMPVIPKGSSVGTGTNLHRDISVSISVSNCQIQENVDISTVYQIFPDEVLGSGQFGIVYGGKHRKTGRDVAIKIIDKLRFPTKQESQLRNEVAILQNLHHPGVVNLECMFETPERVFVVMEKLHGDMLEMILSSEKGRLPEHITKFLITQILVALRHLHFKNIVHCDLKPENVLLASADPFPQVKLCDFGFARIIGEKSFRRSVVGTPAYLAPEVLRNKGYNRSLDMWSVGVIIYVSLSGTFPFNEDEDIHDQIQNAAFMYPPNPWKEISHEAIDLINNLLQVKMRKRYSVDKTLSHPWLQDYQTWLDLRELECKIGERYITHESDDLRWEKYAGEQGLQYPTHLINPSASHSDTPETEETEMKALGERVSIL
The experiment in a line: PKD1 TR-FRET (LANCE) kinase assay. Particulars: full length wild-type enzyme, 20 μM ATP, syntide-2 substrate; read-out: Inhibitory Activity PKD1. Type of assay: biochemical. The text has this:
(§1) The assay to measure protein kinase D1 (PKD1) activity is a time-resolved fluorescence resonance transfer (TR-FRET) assay using PerkinElmer's LANCE™ technology. In this case, a biotinylated syntide-2 peptide is used as the substrate in this reaction. Phosphorylation of the syntide-2 substrate is detected by a specific antibody that recognizes the phosphorylated peptide. A second fluorophore, APC, is conjugated to streptavidin that binds the biotinylated syntide-2 peptide. […] Therefore, when the europium labeled secondary antibody binds on the phosphorylated peptide, it is brought into close contact with the APC and excites this fluorophore.
(§2) This assay is performed with full length wild-type enzyme that is expressed and purified from Sf9 insect cells. The reaction buffer consists of 35 mM Tris-HCl pH7.5, 5 mM MgCl2, 0.02% Tween-20, 20 μM ATP, 1 mM DTT and 0.2 μg/mL PKD1 enzyme. The enzyme reaction is initiated by the addition of 2 μM syntide-2 peptide substrate and the reaction carried out for 50 minutes at room temperature. The reaction is stopped by a stop/detection Buffer consisting of 50 mM EDTA, 0.18 mg/mL rabbit polyclonal anti-phospho Syntide-2 antibody, 0.5 nM europium labeled anti-rabbit IgG and 10 nM streptavidin conjugated APC. […] IC50 values are calculated using an Activity Base (IDBS) software program.
Background: Time-resolved FRET reads energy transfer from a long-lived donor to a nearby acceptor.

The target in assay [2] is T2, protein kinase D2 (PKD2) (Homo sapiens, UniProt Q9BZL6).
T2 construct: This assay is performed with full length wild-type enzyme purchase from Invitrogen; purchased Invitrogen
T2 sequence (Q9BZL6 1-878): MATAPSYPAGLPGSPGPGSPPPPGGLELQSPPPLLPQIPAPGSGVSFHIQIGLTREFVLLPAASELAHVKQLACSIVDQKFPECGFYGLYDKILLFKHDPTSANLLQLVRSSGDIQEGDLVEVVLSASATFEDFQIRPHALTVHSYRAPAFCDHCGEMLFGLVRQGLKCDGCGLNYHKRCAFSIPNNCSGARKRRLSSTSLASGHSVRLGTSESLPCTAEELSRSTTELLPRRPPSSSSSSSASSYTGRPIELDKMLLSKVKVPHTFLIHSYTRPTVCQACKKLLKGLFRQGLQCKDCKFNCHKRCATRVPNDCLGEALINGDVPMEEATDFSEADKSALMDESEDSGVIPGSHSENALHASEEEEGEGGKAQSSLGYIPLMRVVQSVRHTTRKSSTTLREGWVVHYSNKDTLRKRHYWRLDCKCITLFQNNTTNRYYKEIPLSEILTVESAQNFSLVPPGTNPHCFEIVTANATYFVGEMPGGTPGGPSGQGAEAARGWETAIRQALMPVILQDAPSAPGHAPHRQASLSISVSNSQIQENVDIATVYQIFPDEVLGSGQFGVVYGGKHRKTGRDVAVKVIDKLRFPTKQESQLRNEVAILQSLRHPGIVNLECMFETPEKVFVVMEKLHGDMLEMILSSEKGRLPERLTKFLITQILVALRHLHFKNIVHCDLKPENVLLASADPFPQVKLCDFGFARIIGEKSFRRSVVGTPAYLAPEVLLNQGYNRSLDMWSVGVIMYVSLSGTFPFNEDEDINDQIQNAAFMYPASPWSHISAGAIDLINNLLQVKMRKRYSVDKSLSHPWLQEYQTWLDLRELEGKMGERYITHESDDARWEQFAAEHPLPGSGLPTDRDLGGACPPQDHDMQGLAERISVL
The experiment in a line: PKD2 TR-FRET (LANCE) kinase assay. Type of assay: biochemical. Particulars: full length wild-type enzyme, 20 μM ATP, syntide-2 substrate; read-out: Inhibitory Activity PKD2.
Excerpt: as §1, with “D2 (PKD2)” for “D1 (PKD1)”
as §2, with “purchase” for “that is expressed and purified”, “Invitrogen.” for “Sf9 insect cells.”, “PKD2” for “PKD1”, “APC. After a one hour incubation with the stop/detection buffer, the reaction is read on an Envision 2100 Reader using a LANCE™ Eu/APC dual protocol.” for “APC.”

On to `FC(F)(F)c1cc(-c2ccnc(NC3CCCCC3)c2)nc(N2CCNCC2)c1` [Cyclohexyl-(6-piperazin-1-yl-4-trifluoromethyl-[2,4′]bipyridinyl-2′-yl)amine], for which the values for the IC50 in assay [1] and in assay [2] were 20 nM and 101 nM, respectively.
Consider `c1cc(-c2cc(-c3nnco3)cc(N3CCNCC3)n2)cc(NC2CCCCC2)n1` [Cyclohexyl-(4-[1,3,4]oxadiazol-2-yl-6-piperazin-1-yl-[2,4′]bipyridinyl-2′-yl)-amine], for which the IC50 in assay [1] stood at 12 nM; in assay [2] it was 214 nM.
`O=C1NCc2c1cc(-c1ccnc(NC3CCCCC3)c1)nc2N1CCn2cnnc2C1` [6-(2-Cyclohexylamino-pyridin-4yl)-4-(5,6-dihydro-8H-[1,2,4]triazolo[4,3-a]pyrazin-7-yl)-2,3-dihydro-pyrrolo[3,4-c]pyridin-1-one]: the IC50 stood at 56 nM in assay [1] and 466 nM in assay [2].
Take `Fc1ccc(Nc2cc(-c3ccnc(NC4CCCCC4)c3)nc(N3CCNCC3)c2)cc1` [N*2′*-Cyclohexyl-N*4*-(4-fluoro-phenyl)-6-piperazin-1-yl-[2,4′]bipyridinyl-4,2′-diamine]: the IC50 in assay [1] came to 182 nM; in assay [2] it was 1160 nM.
Turning to `Nc1cc(-c2ccnc(NC3CCCCC3)c2)nc(N2CCNCC2)c1` [N*2′*-Cyclohexyl-6-piperazin-1-yl-[2,4′]bipyridinyl-4,2′-diamine], the IC50 in assay [1] was determined as 10 nM; in assay [2], 361 nM.
As to `NC(=O)c1cc(-c2ccnc(NCCc3ccc(O)cc3)c2)nc(N2CCNCC2)c1` [2′-[2-(4-Hydroxyphenyl)ethylamino]-6-piperazin-1-yl-[2,4′]bipyridinyl-4-carboxylic acid amide], the IC50 came out at 2 nM in assay [1] and 402 nM in assay [2].
Consider `O=[N+]([O-])c1cc(-c2ccnc(NC3CCCCC3)c2)nc(N2CCNCC2)c1` [Cyclohexyl-(4-nitro-6-piperazin-1-yl-[2,4′]bipyridinyl-2′-yl)-amine], for which the IC50 was found to be 4 nM in assay [1] and 62 nM in assay [2].
Consider `CS(=O)(=O)c1cc(-c2ccnc(NC3CCCCC3)c2)nc(N2CCNCC2)c1` [Cyclohexyl-(4-methanesulfonyl-6-piperazin-1-yl-[2,4′]bipyridinyl-2′-yl)-amine], for which the figures for the IC50 in assay [1] and in assay [2] were 63 nM and 735 nM, respectively.
For `NC(=O)c1cc(-c2ccnc(NCc3ccccc3Cl)c2)nc(N2CCNCC2)c1` [2′-(2-Chlorobenzylamino-6-piperazin-1-yl-[2,4′]bipyridinyl-4-carboxylic acid amide] the same measures were 25 nM and 368 nM.
Regarding `COC(=O)c1ccc(-c2ccnc(NC3CCCCC3)c2)nc1N1CCNCC1` [2′-Cyclohexylamino-6-piperazin-1-yl-[2,4′]bipyridinyl-5-carboxylic acid methyl ester], the IC50 came to 83 nM in assay [1] and 500 nM in assay [2].
Turning to `NC(=O)c1cc(-c2ccnc(NC3CCCCC3)c2)nc(N2CCN3CCC[C@@H]3C2)c1` [2′-Cyclohexylamino-6-(R)-hexahydro-pyrrolo[1,2-a]pyrazin-2-yl-[2,4′]bipyridinyl-4-carboxylic acid amide], the IC50 in assay [1] turned out to be 35 nM; in assay [2] it was 297 nM.
With `N#CCNC(=O)c1ccc(-c2ccnc(NC3CCCCC3)c2)nc1N1CCNCC1` [2′-Cyclohexylamino-6-piperazin-1-yl-[2,4′]bipyridinyl-5-carbonxylic acid cyanomethyl-amide], the IC50 was 60 nM in assay [1] and 281 nM in assay [2].
